Laboratory results taken from patent publication US20040023276A1, “LXR-ligand induced genes and proteins” (priority 2002, published 2004).

System: LXRLI1 gene
Experiment: Microarray gene expression profiles of cells treated with LXR-ligand
Assay type: cell-based, human
Details: THP-1 cells, primary macrophages, primary hepatocytes; APD 0.001-0.1 μM, 6-24 hours; treated vs. untreated
Description: To identify human transcripts up or down regulated by LXR-ligand, FlexJet™ microarrays representing either 25,000 Unigene clusters were hybridized to a mixture of cRNAs prepared from samples obtained from untreated versus treated cells of various types. Microarrays, and materials and methods for preparing hybridization samples from purified RNA, hybridizing the microarrays, detecting hybridization signals, and data analysis are described in van't Veer,iet al. (2002 Nature 415:530-536) and Hughes, et al. (2001 Nature Biotechnol. 19:342-7).
Experiments were conducted comparing gene expression profiles of primary hepatocytes, primary human macrophage and THP-1 cells treated with a variety of compounds known to activate the LXR and PPAR nuclear receptor regulated pathways. Additional compound treatments were performed which are known to cause an increase, or decrease in cellular cholesterol. All cells were cultured at 37° C. in a humidified atmosphere consisting of 95% air and 5% carbon dioxide. For each cell sample, mRNA was extracted and purified using Trizol reagent (Invitrogen Corporation, Carlsbad, Calif.) followed by DNAse treatment, as described by Fu, et al. (2001 J. Biol. Chem. 276:38378-87). For the primary hepatocytes, the Trizol purification was followed by a RNasy DNAase (Promega Corp, Madison, Wis.) step per the manufacturer's instructions. […]

CC(=O)Oc1ccc2c(c1)[C@@]1(C)CCC[C@](C)(C(=O)OC(=O)[C@@]3(C)CCC[C@]4(C)c5cc(OC(C)=O)ccc5CC[C@@H]34)[C@@H]1CC2 [APD, acetylpodocarpic dimer]
Transcription of the LXRLI1 gene: induced
